Measurements from patent US20190224222A1, “METHOD OF INHIBITING QUORUM SENSING USING D-GALACTOSE” (Seoul National University R&DB Foundation, priority 2014, published 2019).

What was measured:
Fn AI-2 activity = assay: AI-2 activity, bioluminescence of reporter strain V. harveyi BB170; format: cell-based, Vibrio harveyi BB170 (ATCC BAA-1117); settings: for Bioluminescence: V. harveyi BB170 + Fn AI-2 10% (v/v), sugar 20 mM, lower = higher inhibition, Fn/AI-2 control 10712312, BB170 alone 856873
Procedure: The quorum sensing autoinducer, AI-2 stimulates luciferase operon (lux genes) of V. harveyi to induce luciferase expression, resulting in luminescence. Therefore, inhibition of AI-2 activity was confirmed by measuring bioluminescence by AI-2. Bioluminescence mediated by AI-2 was determined using the AI-2 reporter strain V. harveyi BB170. V. harveyi BB170 was cultured in AB medium overnight at 30° C. until OD600 nm=0.7. The bacteria were washed with fresh AB medium and diluted to a concentration of 10^6 cells/ml. Thereafter, V. harveyi BB170 culture broth (5 ml) was mixed with a partially purified F. nucleatum AI-2(′Fn AI-2′) and D-gal (0 or 20 mM) or D-rib (0 or 20 mM). The partially purified Fn AI-2 was obtained by partially purifying the Fn culture broth using a C18 Sep-Pak reverse-phase column (Waters Co., Milford, Mass.). The Fn culture broth or the partially purified Fn AI-2 was added such that a final concentration of AI-2 in the mixture was 10% (vol/vol). 10% (v/v) of Fn AI-2 corresponds to the Fn bacterial number of 1.9×10^8. Then, culture was performed at 30° C. for 1-8 hours. The bioluminescence was measured using a luminometer (GloMax1—Multi detection System, Promega, Madison, Wis.). BB170 is one of V. harveyi bacteria which have a characteristic of recognizing AI-2 to show bioluminescence. The higher bioluminescence value thus measured represents higher AI-2 activity.

S. oxalis (So) biofilm = assay: S. oxalis biofilm formation, crystal violet staining; format: cell-based, Streptococcus oxalis (ATCC 9811); settings: for OD590: So on saliva-coated glass slip, sugar 2 mM, So control 0.59
Procedure: 2 mL (2×10^7/ml) of the culture broth of a representative cariogenic bacterium S. mutans (Sm) and 2 mL (2×10^7/ml) of the culture broth of one of normal oral flora, S. oxalis (SO) were added to a saliva-coated glass slip (round, 12 mm radius), respectively and cultured with 0 mM or 2 mM of D-galactose to form biofilms. […] Further, the biofilms were stained with fluorescent materials using the live/dead-BacLight viability kit (Invitrogen, Grand Island, N.Y., USA), followed by analysis. For comparison, 2 μM of the furanone compound was used instead of D-galactose to perform the same test.

[1] = tested on: P. gingivalis (Pg) biofilm; assay: Pg biofilm formation induced by Fn secretory material, transwell, crystal violet; format: cell-based; settings: for OD590 nm: Fn upper / Pg lower chamber, sugar 2 mM, 48-72 h, Fn/Pg control 0.57, Pg alone 0.30
Procedure: In order to examine efficacies of quorum sensing inhibitor (QSI) candidates on biofilm formation of periodontopathogenic bacteria which is induced by a secretory material of F. nucleatum (Fn), a test was performed using a transwell system. AI-2 naturally secreted by Fn is contained in the secretory material of Fn. Therefore, in the test using the transwell system, Fn AI-2 was not directly added to bacteria, but Fn was put in an upper chamber and Pg or Tf was put in a lower chamber. Biofilms cultured and formed in the presence or absence of QSI candidates were stained with crystal violet, followed by analysis. These conditions are to evaluate whether Pg or Tf biofilm formation is influenced by not a purified AI-2 but an AI-2-containing secretory material naturally secreted by Fn, and whether QSI candidates such as D-gal is able to inhibit the biofilm formation if the biofilm is then formed.
More specifically, the transwell system (24-well) has an upper chamber and a lower chamber which are separated from each other by a membrane of 0.4 μm. 500 μl of F. nucelatum (Fn) culture broth (the number of bacteria: 2×10^7 CFU/ml) was cultured in the upper chamber. A glass slip was placed in the lower chamber, and then the same number of P. gingivalis(Pg) or T. forsythia(Tf) was inoculated in 1 ml of medium and cultured for 48-72 hours. The same QSI candidates were added to the upper and lower chambers. As the QSI candidates, 2 mM of sugar (D-rib or D-gal) was used and 2 μM of the furanone compound [(5Z)-4-bromo-5-(bromomethylene)-2(5H)-furanone] was used. In order to examine whether biofilm formation of the bacteria in the lower chamber is influenced by Fn secretory material and QSI candidates, the biofilms formed on the glass slip were stained with crystal violet, and then quantified (see Examples 3 to 5).

[2] = tested on: F. nucleatum (Fn) biofilm; assay: Fn biofilm formation induced by Fn AI-2, fluorescence staining (confocal); format: cell-based, F. nucleatum (ATCC 25586); settings: D-rib or D-gal 200 mM, Fn AI-2 10% (v/v)
Procedure: Further, inhibitory effects of individual QSI candidates on Fn biofilm formation induced by Fn AI-2 were examined by fluorescence staining. 2 ml of Fn culture broth (the number of bacteria: 2×10^7/ml) was used, and Fn AI-2 was used in a volume of 10% (v/v) with respect to the total volume of a mixture with Fn culture broth. As the QSI candidates, 200 mM of D-rib or D-gal was used, and 20 μM of the furanone compound was used. Biofilms formed on the cover slip were stained with fluorescent materials using the live/dead-BacLight viability kit (Invitrogen, Grand Island, N.Y., USA) and observed using a confocal microscope (Carl Zeiss, LSM 700). […] Fluorescence intensities of the obtained individual fluorescence images were quantified using ZEN 2010 program of a confocal microscope, and shown in FIG. 3.

[3] = tested on: T. forsythia (Tf) biofilm; assay: Tf biofilm formation induced by Fn AI-2, crystal violet staining; format: cell-based, T. forsythia (ATCC 43037); settings: for OD590 nm: Tf + Fn AI-2 10% (v/v), sugar 2 mM, 48-72 h, Tf/AI-2 control 0.48, Tf 0.32; for inhibitory effect on Tf biofilm formation, in words: crystal violet, sugars 2 mM
Procedure: To test biofilm formation by Tf, a test was performed in the same manner as in Example 3. That is, a Tf culture broth (2 ml; a negative control group, the number of bacteria: 2×10^8/ml), a mixture of Tf culture broth (2 ml) and Fn AI-2 (10% (v/v) with respect to the total volume of the mixture with Tf culture broth), or a mixture of Tf culture broth (2 ml) and Fn AI-2 (10% (v/v) with respect to the total volume of the mixture with Tf culture broth) and D-gal (2 mM) was added to a 24-well plate with a glass slip (round, 12 mm radius), and cultured under anaerobic conditions for 48-72 hours. For comparison, 2 mM of D-rib or 2 μM of the furanone compound [(5Z)-4-bromo-5-(bromomethylene)-2(5H)-furanone] was used instead of D-gal to perform the same test.
Biofilms formed on the cover slips were stained with 10% crystal violet [Tris(4-(dimethylamino)phenyl)methylium chloride] for 10 minutes, washed three times with PBS, and destained with 1 ml of acetone-alcohol (20:80, vol/vol). The optical density at 590 nm of the destaining solution containing crystal violet was measured using a microplate reader (a Wallac Victor3 microtiter, PerkinElmer Life Sciences, Waltham, Mass.). The smaller optical density (OD590) measured at 590 nm represents more inhibition of biofilm formation, that is, higher quorum sensing inhibitory effect of the used QSI candidate.

Structure (SMILES)	bioluminescence relative to the bioluminescence upon addition of D-rib (Fn AI-2 activity; D-gal 20 mM vs D-rib 20 mM)	Bioluminescence (Fn AI-2 activity)	quorum sensing inhibitory efficacy relative to D-ribose, in words (Fn AI-2 activity; general statement of the specification)	OD590 (S. oxalis (So) biofilm)	effect on So biofilm formation, in words (S. oxalis (So) biofilm; crystal violet, D-gal 2 mM compared to D-rib and the furanone compound)	inhibitory effect on Pg biofilm formation induced by Fn secretory material, in words ([1]; D-gal 2 mM compared to D-rib 2 mM)	OD590 nm [1]	inhibitory effect on Fn biofilm formation, in words [2]	OD590 nm [3]	inhibitory effect on Tf biofilm formation, in words [3]
O=C[C@H](O)[C@@H](O)[C@@H](O)[C@H](O)CO [D-gal, D-galactose]	about 20%	1138752	twice higher than that of D-ribose	1.07	did not inhibit but increased biofilm formation	remarkably excellent inhibitory effect, compared to D-rib	0.45	remarkably excellent inhibitory effect	0.2	excellent inhibitory effect
O=C[C@H](O)[C@H](O)[C@H](O)CO [D-rib, D-ribose, reference compound]	–	5481975	–	0.85	–	–	0.58	inhibited	0.41	significant inhibitory effect
